Assay results reported in the NIST ThermoML archive (doi:10.1016/j.fluid.2014.10.043).
Numbers after ± are expanded uncertainties.

Columns and labels:
[1] = refractive index (Na D-line) (dimensionless); settings: 293.2 K; 101.33 kPa; Liquid; Standard Abbe refractometry
[2] = 293.2 K; 101.33 kPa; Liquid; Vibrating tube method

SMILES	refractive index [1]	mass density [2]
CCCC(=O)O [butanoic acid]	1.3965 ± 0.0005	957.8 ± 0.37 kg/m3
CC(=O)c1ccccc1 [acetophenone]	1.5361 ± 0.0006	1027.9 ± 0.93 kg/m3
CCCCN(CCCC)CCCC [tributylamine]	1.4275 ± 0.0006	782.3 ± 0.61 kg/m3
CCCCCCCCC(=O)OCC [ethyl nonanoate]	1.4226 ± 0.0006	866.3 ± 0.72 kg/m3
CCCCCCCCO [octan-1-ol]	1.428 ± 0.0005	825.95 ± 0.35 kg/m3

Further lines, results first:

refractive index [1]	mass density [2]	SMILES
1.4125 ± 0.0005	877.15 ± 0.36 kg/m3	CCCCC(=O)OCC [ethyl pentanoate]
1.3918 ± 0.0006	879.18 ± 0.73 kg/m3	CCCC(=O)OCC [ethyl butanoate]
1.4135 ± 0.0006	1055.25 ± 0.98 kg/m3	CCOC(=O)CC(=O)OCC [diethyl 1,3-propanedioate]
